From PubChem BioAssay (NCI)
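Briefly, cells in 96-well plates were exposed to five compound concentrations for 48 h, and endpoints were estimated by linear interpolation. TGI: total growth inhibition.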 Where a SMILES comes first, the peptide text is derived from it. The star is where a group is joined. Boc = CC(C)(C)OC(=O)*; OBn = c1ccc(CO*)cc1

test system: SN12C renal; test: NCI-60 cell line screen, 48 h

Q: With `O=c1c(C=Nc2ccccc2Cl)c(O)n(-c2ccccc2)c(=O)n1-c1ccccc1` as the compound, how does the TGI read?
A: > 100 µM

Q: With `CCOC(=O)NNC(=O)C1CSC(c2ccccc2)N1C(C)=O` (configuration not stated) as the compound, how does the TGI read?
A: > 100 µM

Q: How did the TGI turn out when `Cc1ccc2nc(CN3CCCC(O)C3)cc(=O)n2c1` (configuration not stated) was run?
A: > 100 µM

Q: For `CCOC(=O)C(SCCO)C(C(=O)OCC)n1cnc2c(N)ncnc21` (configuration not stated), which TGI is on record?
A: 25.6 µM

Q: With `COc1ccc2nc3c([N+](=O)[O-])ccc4c3c(c2c1)N=CN4CCCN(C)C` as the compound, how does the TGI read?
A: 11.5 µM

Q: How did the TGI turn out when `CC(C)C(NC(=O)C(Cc1ccccc1)NC(=O)OC(C)(C)C)C(=O)NCC(=O)OCc1ccccc1` (stereo not drawn) (Boc-Phe-Val-Gly-OBn; configuration not given here) was run?
A: 34.5 µM

test system: SF-295 CNS; test: NCI-60 cell line screen, 48 h

Q: `CCOC(=O)C1=CN/C(=C(/C)C(=O)OC)SC1C(=O)OCC` (configuration not stated) was tested. Which TGI did it give?
A: > 100 µM

Q: For `Cc1ccc2c(c1)C(=O)/C(=N/Nc1ccc(Cl)cc1)CCO2`, which TGI is on record?
A: > 100 µM

Q: `COc1cc(C2SCC(=O)N2c2ccccc2Cl)cc(OC)c1OC` (configuration not stated) was tested. Which TGI did it give?
A: > 100 µM

Q: With `CN(C)c1ccc(/C=N\NC(=O)c2ccccc2Nc2ccccc2C(=O)N/N=C/c2ccc(N(C)C)cc2)cc1` as the compound, how does the TGI read?
A: > 100 µM

Q: With `C=C1C(=O)OC2/C=C(\CO)C3OC3C3OC3(C)CC(OC(=O)/C(=C/C)CO)C12` (configuration not stated) as the compound, how does the TGI read?
A: > 100 µM

Q: How did the TGI turn out when `COc1cc(/C=C(\C#N)c2nc3ccccc3o2)ccc1O` was run?
A: 36.8 µM

Q: Which TGI does the source give for `COc1ccc2cc(CNCCCCCCCCCCCCNCc3ccc4cc(OC)ccc4c3)ccc2c1` here?
A: 42.2 µM

Q: Which TGI does the source give for `COC(=O)c1c(O)ccc2c1c1c(n2Cc2ccccc2)C(=O)c2ccccc2C1=O` here?
A: 36.3 µM

Q: With `Cc1csc2nc3c(cnn3C)c(=S)n12` as the compound, how does the TGI read?
A: > 100 µM

Q: With `Cc1cc(C)nc(NS(=O)(=O)c2ccc(NNc3c4ccccc4nc4c(C(=O)Nc5ccc(S(=O)(=O)Nc6ncccn6)cc5)cccc34)cc2)n1` as the compound, how does the TGI read?
A: > 100 µM

Q: For `COCC(N=CN1CCCc2ccccc2[C@@H]1CCCCl)C(C)(C)C` (some centres not stated), which TGI is on record?
A: 35.1 µM

Q: For `CNc1c2cccc(C)c2nc2c(C(=O)NCCN(C)C)cccc12`, which TGI is on record?
A: 0.952 µM

Q: Which TGI does the source give for `O=C1CC(NC(=O)C(F)(F)F)c2c1csc2Br` (configuration not stated) here?
A: > 100 µM

Q: Which TGI does the source give for `CCC(Sc1cc(Cl)c(C)cc1S(=O)(=O)Nc1nc(N)nc(N(C)C)n1)C(=O)O` (configuration not stated) here?
A: > 10 µM

Q: For `O=C(N/N=C/c1ccc2c(c1)OCO2)Nc1ccccc1Cl`, which TGI is on record?
A: 6.84 µM

Q: For `C[C@]12C[C@H](c3ccccc3)Nc3ccccc3N1C(c1ccccc1)=NO2`, which TGI is on record?
A: > 100 µM

Q: Which TGI does the source give for `O=c1c(C=Nc2ccccc2Cl)c(O)n(-c2ccccc2)c(=O)n1-c1ccccc1` here?
A: > 100 µM

Q: With `CCOC(=O)NNC(=O)C1CSC(c2ccccc2)N1C(C)=O` (configuration not stated) as the compound, how does the TGI read?
A: > 100 µM

Q: With `Cc1ccc2nc(CN3CCCC(O)C3)cc(=O)n2c1` (configuration not stated) as the compound, how does the TGI read?
A: > 100 µM

Q: With `CCOC(=O)C(SCCO)C(C(=O)OCC)n1cnc2c(N)ncnc21` (configuration not stated) as the compound, how does the TGI read?
A: > 100 µM

Q: Which TGI does the source give for `COc1ccc2nc3c([N+](=O)[O-])ccc4c3c(c2c1)N=CN4CCCN(C)C` here?
A: 18.2 µM

Q: How did the TGI turn out when `CC(C)C(NC(=O)C(Cc1ccccc1)NC(=O)OC(C)(C)C)C(=O)NCC(=O)OCc1ccccc1` (stereo not drawn) (Boc-Phe-Val-Gly-OBn; configuration not given here) was run?
A: 34.6 µM

test system: SK-MEL-2 melanoma; test: NCI-60 cell line screen, 48 h

Q: Which TGI does the source give for `CCOC(=O)C1=CN/C(=C(/C)C(=O)OC)SC1C(=O)OCC` (configuration not stated) here?
A: > 100 µM

Q: For `Cc1ccc2c(c1)C(=O)/C(=N/Nc1ccc(Cl)cc1)CCO2`, which TGI is on record?
A: 54.6 µM

Q: `COc1cc(C2SCC(=O)N2c2ccccc2Cl)cc(OC)c1OC` (configuration not stated) was tested. Which TGI did it give?
A: > 100 µM

Q: For `CN(C)c1ccc(/C=N\NC(=O)c2ccccc2Nc2ccccc2C(=O)N/N=C/c2ccc(N(C)C)cc2)cc1`, which TGI is on record?
A: > 100 µM

Q: How did the TGI turn out when `C=C1C(=O)OC2/C=C(\CO)C3OC3C3OC3(C)CC(OC(=O)/C(=C/C)CO)C12` (configuration not stated) was run?
A: > 100 µM

Q: With `COc1cc(/C=C(\C#N)c2nc3ccccc3o2)ccc1O` as the compound, how does the TGI read?
A: 47.3 µM

Q: Which TGI does the source give for `COc1ccc2cc(CNCCCCCCCCCCCCNCc3ccc4cc(OC)ccc4c3)ccc2c1` here?
A: 41.1 µM

Q: With `COC(=O)c1c(O)ccc2c1c1c(n2Cc2ccccc2)C(=O)c2ccccc2C1=O` as the compound, how does the TGI read?
A: 27.7 µM

Q: How did the TGI turn out when `Cc1csc2nc3c(cnn3C)c(=S)n12` was run?
A: > 100 µM

Q: How did the TGI turn out when `Cc1cc(C)nc(NS(=O)(=O)c2ccc(NNc3c4ccccc4nc4c(C(=O)Nc5ccc(S(=O)(=O)Nc6ncccn6)cc5)cccc34)cc2)n1` was run?
A: 43.6 µM

Q: How did the TGI turn out when `COCC(N=CN1CCCc2ccccc2[C@@H]1CCCCl)C(C)(C)C` (some centres not stated) was run?
A: 38.3 µM

Q: For `CNc1c2cccc(C)c2nc2c(C(=O)NCCN(C)C)cccc12`, which TGI is on record?
A: 0.996 µM

Q: `O=C1CC(NC(=O)C(F)(F)F)c2c1csc2Br` (configuration not stated) was tested. Which TGI did it give?
A: > 100 µM

Q: `CCC(Sc1cc(Cl)c(C)cc1S(=O)(=O)Nc1nc(N)nc(N(C)C)n1)C(=O)O` (configuration not stated) was tested. Which TGI did it give?
A: > 10 µM

Q: Which TGI does the source give for `O=C(N/N=C/c1ccc2c(c1)OCO2)Nc1ccccc1Cl` here?
A: 25.2 µM

Q: How did the TGI turn out when `C[C@]12C[C@H](c3ccccc3)Nc3ccccc3N1C(c1ccccc1)=NO2` was run?
A: > 100 µM

Q: Which TGI does the source give for `O=c1c(C=Nc2ccccc2Cl)c(O)n(-c2ccccc2)c(=O)n1-c1ccccc1` here?
A: > 100 µM

Q: `CCOC(=O)NNC(=O)C1CSC(c2ccccc2)N1C(C)=O` (configuration not stated) was tested. Which TGI did it give?
A: > 100 µM

Q: `Cc1ccc2nc(CN3CCCC(O)C3)cc(=O)n2c1` (configuration not stated) was tested. Which TGI did it give?
A: > 100 µM

Q: How did the TGI turn out when `CCOC(=O)C(SCCO)C(C(=O)OCC)n1cnc2c(N)ncnc21` (configuration not stated) was run?
A: 24.4 µM

Q: Which TGI does the source give for `COc1ccc2nc3c([N+](=O)[O-])ccc4c3c(c2c1)N=CN4CCCN(C)C` here?
A: 22.8 µM

Q: How did the TGI turn out when `CC(C)C(NC(=O)C(Cc1ccccc1)NC(=O)OC(C)(C)C)C(=O)NCC(=O)OCc1ccccc1` (stereo not drawn) (Boc-Phe-Val-Gly-OBn; configuration not given here) was run?
A: 32 µM

test system: COLO 205 colon; test: NCI-60 cell line screen, 48 h

Q: `CCOC(=O)C1=CN/C(=C(/C)C(=O)OC)SC1C(=O)OCC` (configuration not stated) was tested. Which TGI did it give?
A: > 100 µM

Q: For `Cc1ccc2c(c1)C(=O)/C(=N/Nc1ccc(Cl)cc1)CCO2`, which TGI is on record?
A: > 100 µM
